Common to all, as to format: cell-based
For test [1], the system named is lactate production. The test is described as follows: Lactate production inhibition assay. To be noted: summary of Table 1. From the text: (§1) Recombinant Lactate Dehydrogenase A (LDHA) was used to convert lactate in tissue culture supernatants to pyruvate, with the concomitant reduction of NAD^+ to NADH. The electron acceptor 1-methoxyphenazine methosulfate (MPMS) was then reduced by the generated NADH, thereby regenerating NAD+. Reduced 1-methoxyphenazine methosulfate is used in turn to reduce Water Soluble Tetrazolium 8 (WST8) to an orange WST8 formazan product. The assay is adapted from the publication “Application of WST-8 based colorimetric NAD(P)H detection for quantitative dehydrogenase assays” described in Chamchoy et al., BMC Biochemistry (2019) 20(1):4.
(§2) Cells were plated at 4,000 per well in 96-well plate in a medium of high glucose DMEM (PAN) supplemented with 10% FBS (PAN), 2 mM glutamine-alanine (PAN), 2 mM pyruvate (Sigma) and 10 mL/L penicillin-streptomycin (PAN) and grown at 37° C. in 0.5% O2, 5% CO2 and 75% humidity. For hypoxia, cells were grown and treated in the Whitley H35 Hypoxystation (Don Whitley Scientific) at 37° C. in 0.5% O2, 5% CO2 and 75% humidity. The next day, cells were induced with test compounds (FIG. 2: compounds of examples 3/16, 3/8, 10 at 10000, 3333, 1111, 370, 123, 41, 14, 5 and 1.5 nM; FIG. 7: compounds of examples 3/16, 3/8, 10 at 41, 14, 4.6 nM and Phenformin at 100, 50, 25, 12.5, 6.25 μM; FIGS. 8C and 8D: compounds of example 3/16, 3/8, 10, 3/19, 30 and 30/2 at 10000, 3333, 1111, 370, 123, 41, 14, 5 and 1.5 nM), as well as with vehicle (DMSO) only, for 48 hours. After this time, the medium was removed from the cells to measure extracellular lactate. To detect extracellular lactate, cell supernatants are diluted 1:5 in assay buffer (0.2 M tris, pH 8.2) by adding 10 μl cell supernatant+40 μl buffer in a 96-well plate. Assay substrate mix is prepared by adding NAD+ (3.75 mM), WST-8 (0.9 mM), MPMS (10 mM) and recombinant LDHA, expressed in E. coli as an N-terminal hexahistidine tagged fusion protein, is added to a final concentration of 0.8 μg/ml in assay buffer. Thereafter, 80 μl of substrate mix is added to 20 μl of diluted cell supernatant in a 96-well flat-bottomed plate and the absorbance at 460 nm determined at one minute intervals over a 30 minute period. A standard curve of known lactate concentrations of 10, 8, 6, 4, 1, 0.5 and 0.25 mM was constructed for each assay plate.

Test [2] relates to Panc02 and SKOV3 cells. Kind of test: Lactate production inhibition assay (FIGS. 8C and 8D). Conditions: 48 hours treatment, 1.5 to 10000 nM.
Description: as §1, §2

The target in test [3] is HIF1a (Homo sapiens (Human), UniProt Q16665). The test is described as follows: Western Blot analysis of HIF1a. To be noted: HeLa cells, 24 hours, 0.1, 0.3 and 1 μM, normoxic and hypoxic conditions, FIG. 4. Here is the method:
Western Blot analysis was used to detect amounts of specific protein in differently treated cells. Proteins are separated by size, transferred onto a nitrocellulose membrane and incubated with protein specific antibodies. The density of the observed band is proportional to the amount of the specific protein inside the cell.
Cells were plated at 4×10^6 (for hypoxia) or 3×10^6 (for normoxia) cells per […] plate in medium of high glucose DMEM (PAN) supplemented with 10% FBS (PAN), 2 mM glutamine-alanine (PAN), 2 mM pyruvate (Sigma) and 10 ml/L penicillin-streptomycin (PAN), and grown at 37° C. in 0.5% O2, 5% CO2 and 75% humidity. For hypoxia, cells were grown and treated in the Whitley H35 Hypoxystation (Don Whitley Scientific) at 37° C. in 0.5% O2, 5% CO2 and 75% humidity. Next day, the cells were treated with test compounds (FIG. 4: compounds of example 3/8 and 10 at concentrations 0.1, 0.3 and 1 μM, Bafilomycin A at 20 nM; FIG. 5: compounds of example 3/16, 3/8 and 10 at concentrations 10, 30 and 100 nM, Bafilomycin A at 20 nM), as well as with vehicle (DMSO) only, for 24 h. […] Protein concentration of the sample was measured using the DC Protein Assay Kit (Biorad, 5000112), 22 μg of protein extract per well was loaded onto a precast SDS page gel (Biorad, 1704273). […] The chemiluminescence was measured using chemiluminescent substrate (#34580, Thermo Scientific).
(In western blotting, separated proteins are transferred to a membrane and probed.)

Structures are written as SMILES.

As for `Cc1ccc(NC(=O)c2ccc3c(c2)OCCO3)cc1NC(=O)c1cc2cccnc2s1` [3/16], the “activity in inhibiting production of ATP and/or lactate” value in test [1] is listed as “high activity”. The lactate levels entry in test [2] is on record as “dose-dependent downregulation”.
Take `O=C(Nc1ccc(F)c(NC(=O)c2cc3ccc(OCCCN4CCCC4)cc3s2)c1)c1ccc2c(c1)OCCO2` [3/8]: in test [1], the “activity in inhibiting production of ATP and/or lactate” value was “high activity”. Also, in test [2], the lactate levels result is given as “dose-dependent downregulation”. For the same compound, the HIF1a protein levels result in test [3] is given as “dose-dependent reduction”.

These data come from patent publication US20260028334A1, “N-(3-(BENZO[B]THIOPHENE-2-CARBOXAMIDO)-PHENYL)-2,3-DIHYDROBENZO[B][1,4]DIOXINE-6-CARBOXAMIDE DERIVATIVES AND RELATED COMPOUNDS AS LACTATE/ATP PRODUCTION INHIBITORS FOR THE TREATMENT OF CANCER” (WMT Aktiengesellschaft, priority 2022, published 2026).
